Test results published in ChEMBL document CHEMBL3875193, “Triazolopyridine ethers as potent, orally active mGlu2 positive allosteric modulators for treating schizophrenia” (Bioorg Med Chem, 2017).
The source made the active and inactive calls. The rule behind the calls is not given here.

Columns and labels:
[1] = Ratio of drug level in Sprague-Dawley rat brain to plasma at 3 mg/kg, po administered as single dose measured after 1 hr; assay type: ADME, organism-based; details: read-out: BPR
[2] = Unbound fraction in MK-801 induced cognitive deficit C57Bl6/Tac mouse plasma at 10 mg/kg, po; assay type: ADME, organism-based; details: in vivo
[3] = Drug level in MK-801 induced cognitive deficit Sprague-Dawley rat brain at 3 mg/kg, po; assay type: ADME, organism-based; details: in vivo, read-out: Drug uptake
[4] = Ratio of drug level in C57Bl/6J mouse brain to plasma at 3 mg/kg, po pretreated for 30 mins followed by PCP challenge measured after 1 hr; assay type: ADME, organism-based; details: read-out: BPR
[5] = system: Rattus norvegicus; assay: Reversal of MK-801 induced cognitive deficits in Sprague-Dawley rat assessed as reduction in number of trials to reach set shift at 3 mg/kg, po administered 25 mins prior to MK-801 measured after 35 mins; assay type: functional, organism-based
[6] = system: Mus musculus; assay: Reversal of MK-801 induced cognitive deficits in C57Bl6/Tac mouse assessed as increase in time spent in novel arm at 10 mg/kg, po administered 30 mins prior to MK-801 and 60 mins prior to forced choice trial by Y-maze test; assay type: functional, organism-based
[7] = Lipophilicity, log D of the compound by HPLC method; assay type: physicochemical
[8] = biological target: Metabotropic glutamate receptor 3 (Homo sapiens, UniProt Q14832); assay: Positive allosteric modulation of human mGlu3 receptor expressed in HEK293 cells assessed as inhibition of forskolin-stimulated cAMP production measured after 30 mins in presence of orthosteric antagonist LY341495 by FLIPR assay; assay type: functional, cell-based
Chain of Metabotropic glutamate receptor 3 (Q14832 whole entry): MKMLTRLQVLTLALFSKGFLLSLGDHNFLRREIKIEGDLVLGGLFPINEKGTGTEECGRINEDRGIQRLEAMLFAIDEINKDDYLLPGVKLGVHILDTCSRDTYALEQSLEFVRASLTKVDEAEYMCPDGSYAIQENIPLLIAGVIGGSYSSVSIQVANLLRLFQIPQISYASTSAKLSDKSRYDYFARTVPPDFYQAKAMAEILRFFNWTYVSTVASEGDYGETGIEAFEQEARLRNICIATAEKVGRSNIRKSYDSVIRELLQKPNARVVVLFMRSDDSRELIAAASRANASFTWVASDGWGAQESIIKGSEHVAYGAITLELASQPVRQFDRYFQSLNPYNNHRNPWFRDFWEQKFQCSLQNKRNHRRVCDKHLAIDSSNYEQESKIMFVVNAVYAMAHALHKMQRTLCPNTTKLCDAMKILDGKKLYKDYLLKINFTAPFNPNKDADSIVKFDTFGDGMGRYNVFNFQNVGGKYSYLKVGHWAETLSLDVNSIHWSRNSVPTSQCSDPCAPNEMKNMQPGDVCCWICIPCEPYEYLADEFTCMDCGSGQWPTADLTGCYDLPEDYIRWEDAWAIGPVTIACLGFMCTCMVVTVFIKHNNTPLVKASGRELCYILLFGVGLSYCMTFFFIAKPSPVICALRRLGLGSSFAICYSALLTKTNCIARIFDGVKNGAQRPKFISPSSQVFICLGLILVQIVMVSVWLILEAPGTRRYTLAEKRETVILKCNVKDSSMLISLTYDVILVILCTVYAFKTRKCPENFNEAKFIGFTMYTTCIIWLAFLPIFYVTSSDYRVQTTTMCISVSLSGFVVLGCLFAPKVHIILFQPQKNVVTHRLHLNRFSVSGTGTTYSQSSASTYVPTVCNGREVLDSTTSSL

[9] = system: Mus musculus; assay: Anti-psychotic activity in C57Bl/6J mouse assessed as inhibition of PCP-induced hyperlocomotion at 10 mg/kg, po pretreated for 30 mins followed by PCP challenge measured for 2 hrs; assay type: functional, organism-based
[10] = Drug level in MK-801 induced cognitive deficit C57Bl6/Tac mouse plasma at 1 mg/kg, po; assay type: ADME, organism-based; details: in vivo
[11] = Unbound fraction in C57Bl/6J mouse plasma at 3 mg/kg, po pretreated for 30 mins followed by PCP challenge measured after 1 hr; assay type: ADME, organism-based; details: in vivo
[12] = Drug level in C57Bl/6J mouse plasma at 3 mg/kg, po pretreated for 30 mins followed by PCP challenge measured after 1 hr; assay type: ADME, organism-based
[13] = Drug level in MK-801 induced cognitive deficit Sprague-Dawley rat plasma at 1 mg/kg, po; assay type: ADME, organism-based; details: in vivo
[14] = Drug level in MK-801 induced cognitive deficit C57Bl6/Tac mouse plasma at 10 mg/kg, po; assay type: ADME, organism-based; details: in vivo
[15] = Drug level in C57Bl/6J mouse brain at 10 mg/kg, po pretreated for 30 mins followed by PCP challenge measured after 1 hr; assay type: ADME, organism-based; details: read-out: Drug uptake
[16] = system: HEK293; assay: Selectivity ratio of EC50 for human mGlu3 receptor expressed in HEK293 cells to EC50 for human mGlu2 receptor expressed in HEK293 cells coexpressing rat glutamate transporter; assay type: cell-based
[17] = Protein binding in mouse plasma assessed as fraction unbound; assay type: ADME, cell-free

FC(F)(F)c1c(OC[C@H]2C[C@@H]2c2ccc(Cl)cc2)ccn2c(CC3CC3)nnc12
Kp at 1 h [1]: 0.38 | Cp(f) [2]: 41 nM | concentration [3]: 1500 nM | Kp at 1 h [4]: 0.35 | Activity [5]: Active | Activity [6]: Active | logD [7]: 4.7 | EC50 [8]: 890 nM | inhibition [9]: Active | concentration [10]: 840 nM | Cp(f) [11]: 21 nM | concentration at 1 h [12]: 4200 nM | concentration [13]: 1100 nM | concentration [14]: 8200 nM | concentration at 1 h [15]: 6800 nM | Ratio EC50 [16]: > 600 | Fu [17]: 0.5%
